Results reported in PubChem BioAssay (NCI).
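Results reflect a 48-hour exposure of cells in 96-well plates to compound at five concentrations. TGI denotes the concentration required for complete inhibition of growth.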

Tests used:
Assay in all cases: NCI tumour cell line growth inhibition, 48 h
[1] = system: OVCAR-3 ovarian
[2] = system: MDA-MB-231 breast
[3] = system: SR leukemia
[4] = system: PC-3 prostate
[5] = system: HCT-116 colon
[6] = system: NCI-H226 lung
[7] = system: SN12C renal
[8] = system: SK-OV-3 ovarian
[9] = system: NCI-H23 lung
[10] = system: EKVX NSCLC
[11] = system: UACC-62 melanoma
[12] = system: 786-0 renal
[13] = system: MCF7 breast
[14] = system: SF-539 CNS
[15] = system: MDA-N
[16] = system: HT29 colon
[17] = system: RPMI-8226 leukemia
[18] = system: SW-620 colon
[19] = system: BT-549 breast
[20] = system: SNB-19 CNS
[21] = system: MDA-MB-435
[22] = system: RXF 393 renal
[23] = system: CCRF-CEM leukemia
[24] = system: SF-268 CNS
[25] = system: NCI-H522 lung
[26] = system: M14 melanoma
[27] = system: HS 578T breast
[28] = system: OVCAR-8 ovarian
[29] = system: ACHN renal
[30] = system: IGROV1 ovarian
[31] = system: KM12 colon
[32] = system: MALME-3M melanoma
[33] = system: NCI/ADR-RES ovarian
[34] = system: T-47D breast
[35] = system: HL-60(TB) leukemia
[36] = system: COLO 205 colon
[37] = system: K-562 leukemia
[38] = system: CAKI-1 renal
[39] = system: HCC-2998 colon
[40] = system: A498 renal
[41] = system: U251 CNS
[42] = system: OVCAR-4 ovarian
[43] = system: SF-295 CNS
[44] = system: SK-MEL-28 melanoma
[45] = system: DU-145 prostate
[46] = system: UACC-257 melanoma
[47] = system: NCI-H460 lung
[48] = system: SK-MEL-2 melanoma
[49] = system: A549 NSCLC
[50] = system: SK-MEL-5 melanoma
[51] = system: TK-10 renal
[52] = system: HOP-92 NSCLC
[53] = system: OVCAR-5 ovarian
[54] = system: HCT-15 colon
[55] = system: HOP-62 NSCLC
[56] = system: LOX IMVI melanoma
[57] = system: MOLT-4 leukemia
[58] = system: SNB-75 CNS

Measured: TGI

CC(=O)c1cc(I)c(O)c2ncccc12
9.61 µM: [43]
4.45 µM: [23]
5.77 µM: [57]
6.82 µM: [42]
6.53 µM: [40]
6.57 µM: [1] | [14]
8.09 µM: [2]
5.08 µM: [50]
5.6 µM: [29]
6.19 µM: [52]
5.7 µM: [6]
8.45 µM: [9] | [45]
9.07 µM: [12]
7.81 µM: [36]
4.28 µM: [35]
6.06 µM: [46]
7.44 µM: [30]
8.76 µM: [22]
7.9 µM: [11]
5.93 µM: [5]
8.98 µM: [3]
7.38 µM: [28]
6.97 µM: [32]
4.09 µM: [26]
8.24 µM: [33]
9.86 µM: [24]
not listed: [58]
> 10 µM: all other assays above

CC1=C(C(=O)N[C@@H](CC(C)C)C(=O)O)N2C(=O)[C@@H](NC(=O)[C@@H](N)Cc3ccccc3)[C@H]2SC1
not listed: [5] | [8] | [9] | [16] | [55]
> 100 µM: all other assays above
